In PMC6437697 (Journal of Medicinal Chemistry, 2019):

Assays:
Assay in all cases: KINOMEscan
Assay type in all cases: binding
Details in all cases: read-out: % control activity remaining
MET = biological target: T1, MET (Homo sapiens, UniProt P08581)
T1 construct: purchased Eurofins DiscoverX KINOMEscan

CHEK2 = biological target: T2, CHEK2 (Homo sapiens, UniProt O96017)
T2 construct: purchased Eurofins DiscoverX KINOMEscan

ACVR1B = biological target: T3, ACVR1B (Homo sapiens, UniProt P36896)
T3 construct: purchased Eurofins DiscoverX KINOMEscan
T3 sequence (P36896 24-505): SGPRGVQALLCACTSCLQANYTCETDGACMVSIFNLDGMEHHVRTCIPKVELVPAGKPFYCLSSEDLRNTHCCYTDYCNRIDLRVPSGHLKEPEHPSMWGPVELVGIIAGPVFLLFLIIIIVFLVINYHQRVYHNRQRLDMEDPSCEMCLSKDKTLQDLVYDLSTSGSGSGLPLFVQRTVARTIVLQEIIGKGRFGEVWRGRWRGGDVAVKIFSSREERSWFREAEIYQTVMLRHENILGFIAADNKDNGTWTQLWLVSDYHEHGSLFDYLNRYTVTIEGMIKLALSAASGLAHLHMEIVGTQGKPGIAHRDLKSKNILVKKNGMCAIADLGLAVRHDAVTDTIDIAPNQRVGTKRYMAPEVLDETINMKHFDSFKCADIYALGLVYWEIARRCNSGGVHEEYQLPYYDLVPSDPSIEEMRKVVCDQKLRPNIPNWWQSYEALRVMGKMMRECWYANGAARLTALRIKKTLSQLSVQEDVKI

CSNK2A2 = biological target: T4, CSNK2A2 (Homo sapiens, UniProt P19784)
T4 construct: purchased Eurofins DiscoverX KINOMEscan

CLK3 = biological target: T5, CLK3 (Homo sapiens, UniProt P49761)
T5 construct: purchased Eurofins DiscoverX KINOMEscan

GCN2(Kin.Dom.2,S808G) = biological target: T6, GCN2(Kin.Dom.2,S808G) (Homo sapiens, UniProt Q9P2K8, S808G)
T6 construct: GCN2(Kin.Dom.2,S808G); purchased Eurofins DiscoverX KINOMEscan
T6 sequence (Q9P2K8 590-1001 S808G limits assumed): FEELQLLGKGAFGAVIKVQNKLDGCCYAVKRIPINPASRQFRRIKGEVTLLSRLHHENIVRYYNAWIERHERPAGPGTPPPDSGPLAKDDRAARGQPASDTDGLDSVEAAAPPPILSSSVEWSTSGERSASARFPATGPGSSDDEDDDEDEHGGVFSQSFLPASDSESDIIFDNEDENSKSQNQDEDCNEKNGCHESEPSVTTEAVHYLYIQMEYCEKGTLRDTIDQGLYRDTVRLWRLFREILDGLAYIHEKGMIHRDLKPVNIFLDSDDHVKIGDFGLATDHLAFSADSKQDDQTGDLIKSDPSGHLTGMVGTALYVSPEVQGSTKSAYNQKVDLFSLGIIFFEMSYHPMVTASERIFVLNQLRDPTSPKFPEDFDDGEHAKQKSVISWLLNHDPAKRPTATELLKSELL

[1] = biological target: T7, ABL1(H396P)-nonphosphorylated (Homo sapiens, UniProt P00519, H396P)
T7 construct: purchased Eurofins DiscoverX KINOMEscan

KIT(V559D,V654A) = biological target: T8, KIT(V559D,V654A) (Homo sapiens, UniProt P10721, V559D/V654A)
T8 construct: purchased Eurofins DiscoverX KINOMEscan

p38-gamma = biological target: T9, p38-gamma (Homo sapiens, UniProt P53778)
T9 construct: purchased Eurofins DiscoverX KINOMEscan
T9 sequence (P53778 1-367): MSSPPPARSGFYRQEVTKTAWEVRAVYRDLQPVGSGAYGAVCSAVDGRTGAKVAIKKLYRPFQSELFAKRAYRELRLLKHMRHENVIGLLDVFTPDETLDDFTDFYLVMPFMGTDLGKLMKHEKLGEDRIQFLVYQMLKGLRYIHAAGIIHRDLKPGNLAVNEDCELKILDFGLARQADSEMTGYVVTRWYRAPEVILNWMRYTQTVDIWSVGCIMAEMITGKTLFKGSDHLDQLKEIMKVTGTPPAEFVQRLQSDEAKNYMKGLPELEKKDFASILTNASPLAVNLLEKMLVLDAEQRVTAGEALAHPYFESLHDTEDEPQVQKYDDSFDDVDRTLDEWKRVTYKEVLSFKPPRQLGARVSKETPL

AXL = biological target: T10, AXL (Homo sapiens, UniProt P30530)
T10 construct: purchased Eurofins DiscoverX KINOMEscan
T10 sequence (P30530 26-894): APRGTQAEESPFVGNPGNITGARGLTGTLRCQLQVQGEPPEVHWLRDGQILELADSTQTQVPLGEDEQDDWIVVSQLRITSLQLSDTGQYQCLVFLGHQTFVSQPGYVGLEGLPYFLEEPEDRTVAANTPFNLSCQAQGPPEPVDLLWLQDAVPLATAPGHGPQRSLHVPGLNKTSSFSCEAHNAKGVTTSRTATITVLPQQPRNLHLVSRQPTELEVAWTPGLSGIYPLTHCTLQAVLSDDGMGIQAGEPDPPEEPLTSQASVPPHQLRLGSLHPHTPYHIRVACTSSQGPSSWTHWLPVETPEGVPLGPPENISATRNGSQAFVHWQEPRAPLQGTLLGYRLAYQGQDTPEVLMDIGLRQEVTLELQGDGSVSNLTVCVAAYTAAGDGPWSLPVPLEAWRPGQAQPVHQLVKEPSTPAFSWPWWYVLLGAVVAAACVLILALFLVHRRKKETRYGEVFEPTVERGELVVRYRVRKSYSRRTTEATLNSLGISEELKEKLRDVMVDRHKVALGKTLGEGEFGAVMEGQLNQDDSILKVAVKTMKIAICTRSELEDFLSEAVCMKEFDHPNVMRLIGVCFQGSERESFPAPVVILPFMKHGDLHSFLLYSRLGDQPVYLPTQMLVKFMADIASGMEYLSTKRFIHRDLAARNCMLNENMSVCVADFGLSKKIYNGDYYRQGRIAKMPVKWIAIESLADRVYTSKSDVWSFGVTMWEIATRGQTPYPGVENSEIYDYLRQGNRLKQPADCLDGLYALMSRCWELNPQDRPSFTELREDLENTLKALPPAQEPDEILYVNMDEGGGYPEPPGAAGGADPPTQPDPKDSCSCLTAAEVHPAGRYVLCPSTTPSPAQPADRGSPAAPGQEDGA

T2 sequence (O96017 whole entry): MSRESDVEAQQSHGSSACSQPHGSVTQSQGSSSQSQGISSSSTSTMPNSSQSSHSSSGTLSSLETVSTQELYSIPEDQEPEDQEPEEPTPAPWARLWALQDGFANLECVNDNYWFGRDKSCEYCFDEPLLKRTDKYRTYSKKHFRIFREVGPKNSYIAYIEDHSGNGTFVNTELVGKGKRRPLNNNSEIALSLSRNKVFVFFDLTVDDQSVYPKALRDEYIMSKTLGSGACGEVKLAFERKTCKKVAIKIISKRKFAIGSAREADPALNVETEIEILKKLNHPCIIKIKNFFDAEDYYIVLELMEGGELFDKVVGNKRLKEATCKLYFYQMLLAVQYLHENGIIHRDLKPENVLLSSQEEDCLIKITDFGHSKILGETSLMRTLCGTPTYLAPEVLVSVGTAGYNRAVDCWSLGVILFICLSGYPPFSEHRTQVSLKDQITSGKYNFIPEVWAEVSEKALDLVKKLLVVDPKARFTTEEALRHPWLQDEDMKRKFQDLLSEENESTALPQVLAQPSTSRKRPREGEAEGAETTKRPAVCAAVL
T4 sequence (P19784 whole entry): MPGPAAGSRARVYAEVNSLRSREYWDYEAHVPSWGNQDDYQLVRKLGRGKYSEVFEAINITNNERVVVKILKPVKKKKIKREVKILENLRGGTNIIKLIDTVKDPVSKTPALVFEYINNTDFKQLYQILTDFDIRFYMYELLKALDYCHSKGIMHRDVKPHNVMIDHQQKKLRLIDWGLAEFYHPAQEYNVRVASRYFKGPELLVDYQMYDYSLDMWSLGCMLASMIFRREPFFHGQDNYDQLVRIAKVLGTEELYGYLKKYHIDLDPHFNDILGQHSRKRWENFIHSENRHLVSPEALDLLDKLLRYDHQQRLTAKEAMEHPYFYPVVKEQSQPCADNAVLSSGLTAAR
T1 sequence (P08581 25-1390): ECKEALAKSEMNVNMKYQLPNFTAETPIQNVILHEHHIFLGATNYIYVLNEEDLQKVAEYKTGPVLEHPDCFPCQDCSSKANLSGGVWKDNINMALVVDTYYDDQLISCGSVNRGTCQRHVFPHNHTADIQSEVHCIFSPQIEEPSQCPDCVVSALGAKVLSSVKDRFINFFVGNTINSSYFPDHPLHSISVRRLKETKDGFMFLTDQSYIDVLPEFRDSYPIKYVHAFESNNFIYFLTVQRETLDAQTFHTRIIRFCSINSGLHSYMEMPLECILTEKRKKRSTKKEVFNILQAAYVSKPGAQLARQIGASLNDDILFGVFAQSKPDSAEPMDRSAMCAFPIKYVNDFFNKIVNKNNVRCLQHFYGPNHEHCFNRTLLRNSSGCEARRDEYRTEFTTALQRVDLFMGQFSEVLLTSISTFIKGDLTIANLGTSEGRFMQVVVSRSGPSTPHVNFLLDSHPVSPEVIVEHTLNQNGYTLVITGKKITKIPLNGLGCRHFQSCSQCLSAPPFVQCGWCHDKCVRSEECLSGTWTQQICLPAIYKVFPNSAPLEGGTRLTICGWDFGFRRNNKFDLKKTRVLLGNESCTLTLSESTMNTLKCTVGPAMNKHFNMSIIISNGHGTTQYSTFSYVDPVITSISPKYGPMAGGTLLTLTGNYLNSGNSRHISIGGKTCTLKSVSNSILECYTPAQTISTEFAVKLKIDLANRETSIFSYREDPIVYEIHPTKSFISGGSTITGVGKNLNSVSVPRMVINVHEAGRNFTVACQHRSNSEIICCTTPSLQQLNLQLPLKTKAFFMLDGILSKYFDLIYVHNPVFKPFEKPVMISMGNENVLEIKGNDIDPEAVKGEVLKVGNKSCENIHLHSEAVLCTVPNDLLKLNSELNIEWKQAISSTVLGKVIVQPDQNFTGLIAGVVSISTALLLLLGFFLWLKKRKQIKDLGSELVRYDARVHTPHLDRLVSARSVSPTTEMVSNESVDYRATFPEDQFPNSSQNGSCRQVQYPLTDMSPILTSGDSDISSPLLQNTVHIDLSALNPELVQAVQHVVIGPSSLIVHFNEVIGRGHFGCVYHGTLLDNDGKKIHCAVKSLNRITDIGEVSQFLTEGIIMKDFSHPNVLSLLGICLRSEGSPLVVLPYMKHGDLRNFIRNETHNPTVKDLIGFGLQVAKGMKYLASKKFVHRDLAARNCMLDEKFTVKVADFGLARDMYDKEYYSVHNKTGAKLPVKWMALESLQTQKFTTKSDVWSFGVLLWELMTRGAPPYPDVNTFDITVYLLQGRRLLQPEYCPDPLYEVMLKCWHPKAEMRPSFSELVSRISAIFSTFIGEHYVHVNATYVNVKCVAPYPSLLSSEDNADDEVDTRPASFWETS
T8 sequence (P10721 26-976 V559D/V654A): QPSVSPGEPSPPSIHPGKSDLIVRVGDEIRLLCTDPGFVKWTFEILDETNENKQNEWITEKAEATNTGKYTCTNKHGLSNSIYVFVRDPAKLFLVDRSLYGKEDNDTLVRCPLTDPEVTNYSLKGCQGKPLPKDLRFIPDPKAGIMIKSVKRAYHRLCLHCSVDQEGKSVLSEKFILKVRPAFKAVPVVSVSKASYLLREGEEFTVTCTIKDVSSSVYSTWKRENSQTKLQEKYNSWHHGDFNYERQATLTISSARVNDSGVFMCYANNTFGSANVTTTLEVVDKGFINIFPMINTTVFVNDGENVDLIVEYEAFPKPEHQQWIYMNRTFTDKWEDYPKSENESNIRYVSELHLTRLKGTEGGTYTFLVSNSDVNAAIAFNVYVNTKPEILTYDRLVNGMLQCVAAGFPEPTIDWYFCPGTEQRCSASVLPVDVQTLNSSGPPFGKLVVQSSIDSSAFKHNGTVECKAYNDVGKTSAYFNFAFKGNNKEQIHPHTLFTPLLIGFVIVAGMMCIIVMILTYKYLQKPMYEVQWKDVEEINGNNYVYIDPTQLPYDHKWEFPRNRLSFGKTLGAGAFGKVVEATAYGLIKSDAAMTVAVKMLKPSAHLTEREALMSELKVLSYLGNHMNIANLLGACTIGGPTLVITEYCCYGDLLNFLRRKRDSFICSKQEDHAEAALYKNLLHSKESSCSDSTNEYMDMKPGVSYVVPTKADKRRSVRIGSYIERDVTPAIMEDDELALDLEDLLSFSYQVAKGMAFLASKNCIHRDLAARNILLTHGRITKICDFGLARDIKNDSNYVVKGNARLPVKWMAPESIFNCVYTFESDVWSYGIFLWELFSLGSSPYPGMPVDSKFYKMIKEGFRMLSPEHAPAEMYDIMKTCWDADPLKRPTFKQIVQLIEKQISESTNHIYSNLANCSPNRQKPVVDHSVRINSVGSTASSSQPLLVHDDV
T5 sequence (P49761 whole entry): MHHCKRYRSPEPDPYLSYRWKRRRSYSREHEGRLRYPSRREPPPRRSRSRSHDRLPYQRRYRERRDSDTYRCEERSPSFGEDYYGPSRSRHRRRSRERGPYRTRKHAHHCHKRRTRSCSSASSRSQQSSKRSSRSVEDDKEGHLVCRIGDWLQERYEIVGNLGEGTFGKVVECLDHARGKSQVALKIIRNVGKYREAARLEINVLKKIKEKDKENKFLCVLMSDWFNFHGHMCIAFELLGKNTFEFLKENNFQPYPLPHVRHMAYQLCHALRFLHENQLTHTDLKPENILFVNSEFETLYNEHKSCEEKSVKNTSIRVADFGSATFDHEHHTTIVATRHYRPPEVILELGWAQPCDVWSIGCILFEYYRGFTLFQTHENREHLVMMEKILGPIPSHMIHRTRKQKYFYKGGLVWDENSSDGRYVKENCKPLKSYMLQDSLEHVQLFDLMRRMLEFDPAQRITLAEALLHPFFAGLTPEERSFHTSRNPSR

Row | SMILES | remaining binding at 1 µM (MET) [%] | remaining binding at 1 µM (CHEK2) [%] | remaining binding at 1 µM (ACVR1B) [%] | remaining binding at 1 µM (CSNK2A2) [%] | remaining binding at 1 µM (CLK3) [%] | remaining binding at 1 µM (GCN2(Kin.Dom.2,S808G)) [%] | remaining binding at 1 µM [1] [%] | remaining binding at 1 µM (KIT(V559D,V654A)) [%] | remaining binding at 1 µM (p38-gamma) [%] | remaining binding at 1 µM (AXL) [%]
1 | Clc1cc(NCC2CC2)c2ncc(-c3ccc4[nH]ncc4c3)n2n1 [compound 2, 6-Chloro-N-(cyclopropylmethyl)-3-(1H-indazol-5-yl)imidazo[1,2-b]pyridazin-8-amine] | 90 | 88 | 89 | 94 | 70 | 93 | 74 | 7.8 | 73 | 84
2 | O=C(CN1CCOCC1)N[C@H]1CC[C@H](Nc2cc(Cl)nn3c(-c4ccc5[nH]ncc5c4)cnc23)CC1 [compound 26] | 100 | 61 | 91 | 100 | 52 | 97 | 16 | 0.7 | 91 | 88
3 | CN1CCC(CNc2cc(Cl)nn3c(-c4cc5nc(Nc6ccccc6)[nH]c5cc4F)cnc23)CC1 [compound 31, 6-Chloro-3-(6-fluoro-2-(phenylamino)-1H-benzo[d]imidazol-5-yl)-N-((1-methylpiperidin-4-yl)methyl)imidazo[1,2-b]pyridazin-8-amine] | 97 | 100 | 100 | 100 | 100 | 77 | 42 | 27 | 83 | 99
